Laboratory results: patent publication US8906825B2, “Herbicidal compositions comprising 4-amino-3-chloro-5-fluoro-6-(4-chloro-2-fluoro-3-methoxyphenyl) pyridine-2-carboxylic acid or a derivative thereof and triazolopyrimidine sulfonamides” (Dow AgroSciences LLC, priority 2012, dated 2014)

How the values were obtained:
Assay type in all cases: in vivo
[1] = test system: BRAPP (Brachiaria platyphylla (Griseb.) Nash, broadleaf signalgrass); test: Postemergence foliar-applied herbicidal mixtures, direct seeded rice, greenhouse (Example I)
From the text: (§1) Seeds or nutlets of the desired test plant species were planted in a soil matrix prepared by mixing a loam or sandy loam soil (e.g., 28.6 percent silt, 18.8 percent clay, and 52.6 percent sand, with a pH of about 5.8 and an organic matter content of about 1.8 percent) and calcareous grit in an 80 to 20 ratio. The soil matrix was contained in plastic pots with a volume of 1 quart and a surface area of 83.6 square centimeters (cm^2). When required to ensure good germination and healthy plants, a fungicide treatment and/or other chemical or physical treatment was applied. The plants were grown for 8-22 days in a greenhouse with an approximate 14 h photoperiod which was maintained at about 29° C. during the day and about 26° C. during the night. Nutrients (Peters Excel® 15-5-15 5-Ca 2-Mg and iron chelate) were applied in the irrigation solution as needed and water was added on a regular basis. Supplemental lighting was provided with overhead metal halide 1000-Watt lamps as necessary. The plants were employed for testing when they reached the first through fourth true leaf stage.
(§2) Treatments consisted of the acid or esters of 4-amino-3-chloro-5-fluoro-6-(4-chloro-2-fluoro-3-methoxy-phenyl)pyridine-2-carboxylic acid (Compound A), each formulated as an SC (suspension concentrate), and various herbicidal components alone and in combination. Forms of compound A were applied on an acid equivalent basis.
(§3) Other herbicidal components were applied on an active ingredient basis and included acetolactate synthase (ALS)-inhibiting herbicides (sulfonamide chemical class) penoxsulam formulated as Grasp® SC, diclosulam formulated as Strongarm®, and cloransulam-methyl formulated as FirstRate®, flumetsulam formulated as Flumetsulam WG, and metosulam formulated as Eclipse®.
(§4) Treatment requirements were calculated based upon the rates being tested, the concentration of active ingredient or acid equivalent in the formulation, and a 12 mL application volume at a rate of 187 L/ha.
(§5) For treatments comprised of formulated compounds, measured amounts of compounds were placed individually in 25 mL glass vials and diluted in a volume of 1.25% (v/v) Agri-Dex® crop oil concentrated to obtain 12× stock solutions. […] Application solutions were prepared by adding an appropriate amount of each stock solution (e.g., 1 mL) and diluted to the appropriate final concentrations with the addition of 10 mL of an aqueous mixture of 1.25% (v/v) crop oil concentrate so that the final spray solutions contained 1.25+/−0.05% (v/v) crop oil concentrate.
(§6) All stock solutions and applications solutions were visually inspected for compound compatibility prior to application. Spray solutions were applied to the plant material with an overhead Mandel track sprayer equipped with an 8002E nozzle calibrated to deliver 187 L/ha over an application area of 0.503 m^2 at a spray height of 18 to 20 inches (46 to 50 cm) above average plant canopy height. Control plants were sprayed in the same manner with the solvent blank.
(§7) The treated plants and control plants were placed in a greenhouse as described above and watered by sub-irrigation to prevent wash-off of the test compounds. After approximately 3 weeks, the condition of the test plants as compared with that of the untreated plants was determined visually and scored on a scale of 0 to 100 percent where 0 corresponds to no injury or growth inhibition and 100 corresponds to complete kill.
(§8) Colby's equation was used to determine the herbicidal effects expected from the mixtures (Colby, S. R. 1967. Calculation of the synergistic and antagonistic response of herbicide combinations. Weeds 15:20-22.).
(§9) The following equation was used to calculate the expected activity of mixtures containing two active ingredients, A and B: Expected=A+B−(A×B/100)

[2] = test system: ECHCG (Echinochloa crusgalli (L.) Beauv., barnyardgrass); test: as above
From the text: as §1, §2, §3, §4, §5, §6, §7, §8, §9

[3] = test system: IPOHE (Ipomoea hederacea Jacq., ivyleaf morningglory); test: as above
From the text: as §1, §2, §3, §4, §5, §6, §7, §8, §9

[4] = test system: CYPIR (Cyperus iria L., rice flatsedge); test: as above
From the text: as §1, §2, §3, §4, §5, §6, §7, §8, §9

[5] = test system: LEFCH (Leptochloa chinensis (L.) Nees, Chinese sprangletop); test: as above
From the text: as §1, §2, §3, §4, §5, §6, §7, §8, §9

[6] = test system: CYPRO (Cyperus rotundus L., purple nutsedge); test: In-water applied herbicidal mixtures, transplanted paddy rice, greenhouse (Example II)
Protocol: (§10) Weed seeds or nutlets of the desired test plant species were planted in puddled soil (mud) prepared by mixing a shredded, non-sterilized mineral soil (50.5 percent silt, 25.5 percent clay, and 24 percent sand, with a pH of about 7.6 and an organic matter content of about 2.9 percent) and water at a 1:1 volumetric ratio. The prepared mud was dispensed in 365 mL aliquots into 16-ounce (oz.) non-perforated plastic pots with a surface area of 86.59 square centimeters (cm^2) leaving a headspace of 3 centimeters in each pot. Mud was allowed to dry overnight prior to planting or transplanting. Rice seeds were planted in Sun Gro MetroMix® 306 planting mixture, which typically has a pH of 6.0 to 6.8 and an organic matter content of about 30 percent, in plastic plug trays. Seedlings at the second or third leaf stage of growth were transplanted into 840 mL of mud contained in 32-oz. non-perforated plastic pots with a surface area of 86.59 cm^2 4 days prior to herbicide application. The paddy was created by filling the headspace of the pots with 2.5 to 3 cm of water. When required to ensure good germination and healthy plants, a fungicide treatment and/or other chemical or physical treatment was applied. The plants were grown for 4-22 days in a greenhouse with an approximate 14 h photoperiod which was maintained at about 29′C during the day and about 26° C. during the night. Nutrients were added as Osmocote® (19:6:12, N:P:K+minor nutrients) at 2 g per 16-oz. pot and 4 g per 32-oz. pot. Water was added on a regular basis to maintain the paddy flood, and supplemental lighting was provided with overhead metal halide 1000-Watt lamps as necessary. The plants were employed for testing when they reached the first through fourth true leaf stage.
(§11) Treatments consisted of the acid or esters of 4-amino-3-chloro-5-fluoro-6-(4-chloro-2-fluoro-3-methoxy-phenyl)pyridine-2-carboxylic acid (compound A) each formulated as an SC and various herbicidal components alone and in combination. Forms of compound A were applied on an acid equivalent basis.
(§12) Other herbicidal components were applied on an active ingredient basis and included acetolactate synthase (ALS)-inhibiting herbicides (sulfonamide chemical class) penoxsulam formulated as Grasp® SC (GF-443), diclosulam formulated as Strongarm®, and cloransulam-methyl formulated as FirstRate®.
(§13) Treatment requirements for each compound or herbicidal component were calculated based upon the rates being tested, the concentration of active ingredient or acid equivalent in the formulation, an application volume of 2 mL per component per pot, and an application area of 86.59 cm^2 per pot.
(§14) For formulated compounds, a measured amount was placed in an individual 100 or 200 mL glass vial and was dissolved in a volume of 1.25% (v/v) Agri-Dex® crop oil concentrate to obtain each application solution.
(§15) Applications were made by injecting with a pipetter appropriate amounts of the application solutions, individually and sequentially, into the aqueous layer of the paddy. Control plants were treated in the same manner with the solvent blank. Applications were made so that all treated plant material received the same concentrations of acetone and crop oil concentrate.
as §7, with “water was added as needed” for “watered by sub-irrigation”, “maintain a paddy flood.” for “prevent wash-off of the test compounds.”, “weeks” for “weeks,”
as §8, §9

[7] = test system: ECHCG (Echinochloa crusgalli (L.) Beauv., barnyardgrass); test: as above; conditions: Diclosulam 6.62 gai/ha
Protocol: as §10, §11, §12, §13, §14, §15
as §7, with “water was added as needed” for “watered by sub-irrigation”, “maintain a paddy flood.” for “prevent wash-off of the test compounds.”, “weeks” for “weeks,”
as §8, §9

[8] = Compound A n-Butyl Ester 4.38 gae/ha
[9] = Compound A n-Butyl Ester 8.75 gae/ha
[10] = Compound A n-Butyl Ester 17.5 gae/ha

In the case of `CCCCOC(=O)c1nc(-c2ccc(Cl)c(OC)c2F)c(F)c(N)c1Cl` [Compound A n-Butyl Ester], the “Visual Weed Control (%) - 21 DAA BRAPP Obs” value [1, 8] is reported as 0%, the “Visual Weed Control (%) - 21 DAA BRAPP Obs” value [1, 9] is reported as 40% and the “Visual Weed Control (%) - 27 DAA ECHCG Obs” value [2, 8] is reported as 0%. The “Visual Weed Control (%) - 27 DAA ECHCG Obs” value [2, 9] was 0%, the “Visual Weed Control (%) - 27 DAA ECHCG Obs” value [2, 10] was 90% and the “Visual Weed Control (%) - 27 DAA IPOHE Obs” value [3, 8] was 10%. For the same compound, the “Visual Weed Control (%) - 27 DAA IPOHE Obs” value [3, 9] was 10% and the “Visual Weed Control (%) - 27 DAA IPOHE Obs” value [3, 10] was 10%.
With `Cc1ccn2nc(S(=O)(=O)Nc3c(F)cccc3F)nc2n1` [Flumetsulam, N-(2,6-difluorophenyl)-5-methyl[1,2,4]triazolo[1,5-a]pyrimidine-2-sulfonamide, reference compound] the “Visual Weed Control (%) - 22 DAA BRAPP Obs” value ([1]; Flumetsulam 6.25 gai/ha) was 30%, the “Visual Weed Control (%) - 22 DAA CYPIR Obs” value ([4]; Flumetsulam 6.25 gai/ha) was 20% and the “Visual Weed Control (%) - 22 DAA CYPIR Obs” value ([4]; Flumetsulam 12.5 gai/ha) was 55%. The “Visual Weed Control (%) - 22 DAA CYPIR Obs” value ([4]; Flumetsulam 25 gai/ha) was 30%.
`CCOc1nc(F)cc2nc(S(=O)(=O)Nc3c(Cl)cccc3Cl)nn12` [Diclosulam, N-(2,6-dichlorophenyl)-5-ethoxy-7-fluoro[1,2,4]triazolo[1,5-c]pyrimidine-2-sulfonamide, reference compound] was tested, and the “Visual Weed Control (%) - 20 DAA LEFCH Obs” value ([5]; Diclosulam 6.62 gai/ha, Table 4) was 0%, the “Visual Weed Control (%) - 20 DAA LEFCH Obs” value ([5]; Diclosulam 6.62 gai/ha, Table 5) was 0% and the “Visual Weed Control (%) - 20 DAA LEFCH Obs” value ([5]; Diclosulam 13.25 gai/ha, Table 5) was 20%. The “Visual Weed Control (%) - 21 DAA CYPRO Obs” value ([6]; Diclosulam 6.62 gai/ha) was 80%, the “Visual Weed Control (%) - 21 DAA CYPRO Obs” value ([6]; Diclosulam 13.25 gai/ha) was 80% and the “Visual Weed Control (%) - 21 DAA ECHCG Obs” value [7] was 70%.
